Experimental data taken from patent US7102056B1, “Compositions and methods for plant transformation and regeneration” (The Regents of the University of California, priority 1997, dated 2006).

Key:
[1] = test system: green tissue of Golden Promise, Galena and Harrington; experiment: Selection and regeneration of bombarded green tissues with selective agents; format: cell-based; conditions: bombarded barley green tissues under selection
Protocol: The green regenerative tissues generated and maintained on one or two of these media, DBC2 (comprising 2.5 mg/L 2,4-D, 0.1 mg/L BAP and 5.0 μM CuSO4, Cho et al., 1998) or DBC3 (comprising 1.0 mg/L 2,4-D, 0.5 mg/L BAP and 5.0 μM CuSO4, Cho et al., 1998), were used directly as transformation targets. For bombardment, 3 to 4 mm pieces of green tissue of Golden Promise, Galena and Harrington, removed 3 to 4 months after initiation of the original culture, were osmotically treated on DBC2 or DBC3 medium and bombarded the same day with three different selection constructs, ubi-bar/ubi-uidA, ubi-nptII/ubi-uidA and act-hpt/ubi-uidA. […] Sixteen to 18 hr post-bombardment, green tissues were transferred without osmoticum or selective agent to dim light on DBC2 or DBC3 medium for Golden Promise and Harrington or DBC3 for Galena. Selection with all agents started […] post-bombardment to allow for proliferation of transformed cells in the absence of the cell death resulting from wounding or selection. At that time, tissue was broken into pieces (3-5 mm) and transferred to either DBC2 or DBC3 medium (depending on morphology) with 3 mg/L bialaphos (bar), 20-25 mg/L hygromycin B (hpt) or 30 mg/L G418 (nptII), depending on the construct used. Starting with the third round of selection, levels of selective agent were increased to 45 mg/L bialaphos, 25 mg/L hygromycin B or 40 mg/L G418. […]

[2] = test system: Golden Promise immature embryos; experiment: Callus quality on twelve callus-induction media (auxin types, copper); format: cell-based, barley
Protocol: (§1) To examine the effects of different types of auxins and concentrations of copper on callus quality and regenerability in barley, twelve different media were tested, using methods essentially as described in Example 2 above.

calli of Golden Promise = experiment: Regenerability of calli from twelve callus-induction media (auxin types, copper); format: cell-based, barley
Protocol: as §1

Galena immature embryos = experiment: Callus-induction frequency on callus-induction media (CIM); format: cell-based, barley (Hordeum vulgare L.); conditions: Galena half embryos on CIM; 2 to 3 weeks after initial culturing; means ± SD of three replicates
Protocol: (§2) Immature embryos (about 1.5-2.5 mm in size) were taken from spikes approximately three months in age that were surface-sterilized in 20% (v/v) bleach (5.25% sodium hypochlorite) for 7 min. washed 5 min with sterile water three times, bisected longitudinally, and placed on CIM. Ten half-embryos were tested on CIM supplemented with each of the fourteen phytohormone combinations; each treatment had three replicates. (Whole embryos can also be used.) Callus-induction frequency was measured by counting numbers of half embryos undergoing callus induction under a light microscope 2 to 3 weeks after initial culturing.
(§3) Immature zygotic embryos about 1.5 to 2.5 mm in size were dissected and isolated intact under a stereo dissecting microscope from seeds that were surface-sterilized for 10 min in 20% (v/v) bleach (5.25% sodium hypochlorite) followed by three washes in sterile water. The embryos were placed scutellum-side down on CIM.
(§4) Six different CIMs were used to test callus-induction frequencies and callus quality. The CIMs had, respectively, different concentrations of: 2,4-D (1.0 and 2.5 mg/L), BAP (0.01, 0.1 and 0.5 mg/L), and cupric sulfate (CuSO4; 0.1 and 5.0 μM) as shown in Table 7.
(§5) The initial callus-induction frequency was determined using CIM of different compositions. Ten immature embryos from the barley genotypes Golden Promise and Galena were transferred to each CIM. Each CIM contained the following levels of hormones and copper: D, 2.5 mg/L 2,4-D and 0.1 μM CuSO4; DC, 2.5 mg/L 2,4-D and 5.0 μM CuSO4; DB, 2.5 mg/L 2,4-D, 0.1 mg/L BAP, 0.1 μM CuSO4; DBC1, 2.5 mg/L 2,4-D, 0.01 mg/L BAP and 5.0 μM CuSO4; DBC2, 2.5 mg/L 2,4-D, 0.1 mg/L BAP and 5.0 μM CuSO4; DBC3, 1.0 mg/L 2,4-D, 0.5 mg/L BAP and 5.0 μM CuSO4. Callus quality was assessed microscopically and scored on a scale with ++++ designating highest quality and +designating lowest quality. Values were measured three weeks after initial callus induction and represent means of three replicates for each treatment. […] Tissue quality was poor on CIM containing BAP three weeks after induction but improved after two to three transfers on this medium. Only a fraction of scutellar tissues on Galena immature embryos formed callus, while most of the scutellar surface on Golden Promise immature embryos formed high-quality callus.

[3] = test system: Golden Promise immature embryos; experiment: as above; format: cell-based, barley (Hordeum vulgare L.); conditions: Golden Promise half embryos on CIM; 2 to 3 weeks after initial culturing; means ± SD of three replicates
Protocol: as §2, §3, §4, §5

[4] = test system: nontransgenic callus tissues of Golden Promise; experiment: Regeneration via an intermediate-incubation step, nontransgenic callus; format: cell-based, barley; conditions: two-month-old callus of Golden Promise maintained on CIM containing the auxin alone
Protocol: Callus induction was performed as described above using CIM with 2.5 mg/L of 2,4-D or dicamba (no cytokinin). After incubation for three weeks at 24±1° C. in the dark, callus was cut into small pieces (about 3 to 4 mm), then maintained on the same medium with subculturing at three-week intervals.
Ten pieces of two-month-old nontransgenic calli grown on CIM supplemented with either 2,4-D or dicamba in the dark were transferred to RM either directly or following incubation on an IIM.
Two different IIM were used, DBC2 and DBC3. DBC2 medium is CIM containing 2.5 mg/L 2,4-D, 0.1 mg/L BAP, and 5.0 μM copper (cupric sulfate). DBC3 medium is CIM containing 1.0 mg/L 2,4-D, 0.5 mg/L BAP, and 5.0 μM copper. After growing calli on these media for 3-4 weeks under dim light conditions (20 to 30 μE; 16 h light/8 h dark), the numbers of calli producing green sectors or green regenerative structures were counted. Green sectors and small green regenerative structures were then transferred to fresh RM and grown under higher light intensity (45-55 μE). After 3-4 weeks, the numbers of green shoots per callus piece were counted. […]

| SMILES | albino plants during regeneration of selected tissues [1] | induction of calli which regenerated green plants (calli of Golden Promise) | Callus Induction Frequency (%) GAL (Galena immature embryos) [%] | Callus Induction Frequency (%) GP [3] [%] | green shoots per callus piece [4] | other results |
| --- | --- | --- | --- | --- | --- | --- |
| CN[C@H]1C[C@@H](N)[C@H](O)[C@@H](O[C@@H]2O[C@H](CO)[C@H](O)[C@@H]3OC4(O[C@H]23)O[C@H]([C@@H](N)CO)[C@H](O)[C@H](O)[C@H]4O)[C@@H]1O (some centres unmarked) [hygromycin B] | frequently albino plants were observed | – | – | – | – | – |
| O=C(O)Cc1c[nH]c2ccccc12 [IAA] | – | Neither IAA nor NAA was optimal | – | – | – | callus quality [2]: poorer callus quality than the other auxins |
| COc1c(Cl)ccc(Cl)c1C(=O)O [dicamba] | – | – | ~100 | ~100 | 1.15 | – |
| C[C@H](NC(=O)[C@H](C)NC(=O)[C@@H](N)CCP(C)(=O)O)C(=O)O [bialaphos] | no albino plants were observed | – | – | – | – | – |
| O=C(O)COc1ccc(Cl)cc1Cl [2,4-D, 2,4-dichlorophenoxyacetic acid] | – | – | ~100 | ~100 | 0.35 | – |
| O=C(O)Cc1cccc2ccccc12 [NAA] | – | Neither IAA nor NAA was optimal | – | – | – | – |
